Organism: Rattus norvegicus
Test: DrugMatrix - Regimen: Daily Repeat
Type: toxicity, organism-based, Sprague-Dawley
Parameters: regimen Daily Repeat, gender Male, age 6-8 weeks
Details: in vivo, po, route oral GAVAGE, vehicle .5 % CMC; for ABSOLUTE BASOPHIL / BASOPHIL / EOSINOPHIL / ERYTHROCYTE COUNT / HEMATOCRIT / HEMOGLOBIN / LEUKOCYTE COUNT / LYMPHOCYTE / MEAN CORPUSCULAR HEMOGLOBIN / MEAN CORPUSCULAR HEMOGLOBIN CONCENTRATION / MEAN CORPUSCULAR VOLUME / MONOCYTE / NEUTROPHIL / PLATELET COUNT: tissue Blood; for ALANINE AMINOTRANSFERASE / ALKALINE PHOSPHATASE / ASPARTATE AMINOTRANSFERASE / BLOOD UREA NITROGEN / CHLORIDE / CHOLESTEROL / CREATINE PHOSPHOKINASE / CREATININE / GLUCOSE / PHOSPHORUS / POTASSIUM / SODIUM / TOTAL BILIRUBIN / TOTAL PROTEIN: tissue Plasma
[1] = 0 mg/kg, 72 h, dose level Control, time 3 day
[2] = 0 mg/kg, 120 h, dose level Control, time 5 day
[3] = 32 mg/kg, 72 h, dose level Low, time 3 day
[4] = 32 mg/kg, 120 h, dose level Low, time 5 day
[5] = 320 mg/kg, 72 h, dose level High, time 3 day
[6] = 320 mg/kg, 120 h, dose level High, time 5 day

Compound: C1CCC(C(CC2CCCCN2)C2CCCCC2)CC1 (stereo not drawn) [PERHEXILINE]
- ABSOLUTE BASOPHIL [1]: 16.7 cells/µL
- BASOPHIL [1]: 0.17%
- EOSINOPHIL [1]: 0.62%
- ERYTHROCYTE COUNT [1]: 6.55 x10E6/uL
- HEMATOCRIT [1]: 42%
- HEMOGLOBIN [1]: 13.48 G/DL
- LEUKOCYTE COUNT [1]: 8.79 x10E3/uL
- LYMPHOCYTE [1]: 76.98%
- MEAN CORPUSCULAR HEMOGLOBIN [1]: 20.57 pg
- MEAN CORPUSCULAR HEMOGLOBIN CONCENTRATION [1]: 32.08 G/DL
- MEAN CORPUSCULAR VOLUME [1]: 64.1 fL
- MONOCYTE [1]: 2.12%
- NEUTROPHIL [1]: 19%
- PLATELET COUNT [1]: 1432.17 x10E3/uL
- ALANINE AMINOTRANSFERASE [1]: 42.83 u/L
- ALKALINE PHOSPHATASE [1]: 328.5 u/L
- ASPARTATE AMINOTRANSFERASE [1]: 78.33 u/L
- BLOOD UREA NITROGEN [1]: 14.5 mg/dL
- CHLORIDE [1]: 104.5 MEQ/L
- CHOLESTEROL [1]: 78.67 mg/dL
- CREATINE PHOSPHOKINASE [1]: 282.33 u/L
- CREATININE [1]: 0.25 mg/dL
- GLUCOSE [1]: 173.67 mg/dL
- PHOSPHORUS [1]: 12.83 mg/dL
- POTASSIUM [1]: 6.7 MEQ/L
- SODIUM [1]: 145.83 MEQ/L
- TOTAL BILIRUBIN [1]: 0.4 mg/dL
- TOTAL PROTEIN [1]: 5.93 G/DL
- ABSOLUTE BASOPHIL [2]: 28 cells/µL
- BASOPHIL [2]: 0.26%
- EOSINOPHIL [2]: 0.44%
- ERYTHROCYTE COUNT [2]: 6.99 x10E6/uL
- HEMATOCRIT [2]: 45.12%
- HEMOGLOBIN [2]: 14.26 G/DL
- LEUKOCYTE COUNT [2]: 9.42 x10E3/uL
- LYMPHOCYTE [2]: 79.92%
- MEAN CORPUSCULAR HEMOGLOBIN [2]: 20.44 pg
- MEAN CORPUSCULAR HEMOGLOBIN CONCENTRATION [2]: 31.62 G/DL
- MEAN CORPUSCULAR VOLUME [2]: 64.6 fL
- MONOCYTE [2]: 2.2%
- NEUTROPHIL [2]: 16.14%
- PLATELET COUNT [2]: 1062.2 x10E3/uL
- ALANINE AMINOTRANSFERASE [2]: 44 u/L
- ALKALINE PHOSPHATASE [2]: 342.6 u/L
- ASPARTATE AMINOTRANSFERASE [2]: 74.17 u/L
- BLOOD UREA NITROGEN [2]: 13 mg/dL
- CHLORIDE [2]: 103 MEQ/L
- CHOLESTEROL [2]: 72.83 mg/dL
- CREATINE PHOSPHOKINASE [2]: 184.67 u/L
- CREATININE [2]: 0.47 mg/dL
- GLUCOSE [2]: 168.17 mg/dL
- PHOSPHORUS [2]: 12.27 mg/dL
- POTASSIUM [2]: 6.98 MEQ/L
- SODIUM [2]: 147 MEQ/L
- TOTAL BILIRUBIN [2]: 0.65 mg/dL
- TOTAL PROTEIN [2]: 6.23 G/DL
- ABSOLUTE BASOPHIL [3]: 20 cells/µL
- BASOPHIL [3]: 0.17%
- EOSINOPHIL [3]: 0.47%
- ERYTHROCYTE COUNT [3]: 6.84 x10E6/uL
- HEMATOCRIT [3]: 42.07%
- HEMOGLOBIN [3]: 13.8 G/DL
- LEUKOCYTE COUNT [3]: 11 x10E3/uL
- LYMPHOCYTE [3]: 83.1%
- MEAN CORPUSCULAR HEMOGLOBIN [3]: 20.2 pg
- MEAN CORPUSCULAR HEMOGLOBIN CONCENTRATION [3]: 32.8 G/DL
- MEAN CORPUSCULAR VOLUME [3]: 61.57 fL
- MONOCYTE [3]: 1.9%
- NEUTROPHIL [3]: 12.83%
- PLATELET COUNT [3]: 1282.33 x10E3/uL
- ALANINE AMINOTRANSFERASE [3]: 33.33 u/L
- ALKALINE PHOSPHATASE [3]: 346 u/L
- ASPARTATE AMINOTRANSFERASE [3]: 61 u/L
- BLOOD UREA NITROGEN [3]: 11.67 mg/dL
- CHLORIDE [3]: 104.33 MEQ/L
- CHOLESTEROL [3]: 65.33 mg/dL
- CREATINE PHOSPHOKINASE [3]: 229 u/L
- CREATININE [3]: 0.37 mg/dL
- GLUCOSE [3]: 183.67 mg/dL
- PHOSPHORUS [3]: 13.7 mg/dL
- POTASSIUM [3]: 6.87 MEQ/L
- SODIUM [3]: 145.33 MEQ/L
- TOTAL BILIRUBIN [3]: 0.3 mg/dL
- TOTAL PROTEIN [3]: 5.73 G/DL
- ABSOLUTE BASOPHIL [4]: 150 cells/µL
- BASOPHIL [4]: 1.2%
- EOSINOPHIL [4]: 0.5%
- ERYTHROCYTE COUNT [4]: 7.42 x10E6/uL
- HEMATOCRIT [4]: 47.53%
- HEMOGLOBIN [4]: 15.03 G/DL
- LEUKOCYTE COUNT [4]: 12.21 x10E3/uL
- LYMPHOCYTE [4]: 82.57%
- MEAN CORPUSCULAR HEMOGLOBIN [4]: 20.33 pg
- MEAN CORPUSCULAR HEMOGLOBIN CONCENTRATION [4]: 31.7 G/DL
- MEAN CORPUSCULAR VOLUME [4]: 64.2 fL
- MONOCYTE [4]: 2.13%
- NEUTROPHIL [4]: 12.7%
- PLATELET COUNT [4]: 1404 x10E3/uL
- ALANINE AMINOTRANSFERASE [4]: 34.33 u/L
- ALKALINE PHOSPHATASE [4]: 375.33 u/L
- ASPARTATE AMINOTRANSFERASE [4]: 68.33 u/L
- BLOOD UREA NITROGEN [4]: 11.33 mg/dL
- CHLORIDE [4]: 102 MEQ/L
- CHOLESTEROL [4]: 67 mg/dL
- CREATINE PHOSPHOKINASE [4]: 206.67 u/L
- CREATININE [4]: 0.3 mg/dL
- GLUCOSE [4]: 187 mg/dL
- PHOSPHORUS [4]: 12.13 mg/dL
- POTASSIUM [4]: 6.8 MEQ/L
- SODIUM [4]: 149.67 MEQ/L
- TOTAL BILIRUBIN [4]: 0.3 mg/dL
- TOTAL PROTEIN [4]: 6.4 G/DL
- ABSOLUTE BASOPHIL [5]: 33.3 cells/µL
- BASOPHIL [5]: 0.33%
- EOSINOPHIL [5]: 0.4%
- ERYTHROCYTE COUNT [5]: 7.33 x10E6/uL
- HEMATOCRIT [5]: 45.27%
- HEMOGLOBIN [5]: 14.7 G/DL
- LEUKOCYTE COUNT [5]: 9.79 x10E3/uL
- LYMPHOCYTE [5]: 79.33%
- MEAN CORPUSCULAR HEMOGLOBIN [5]: 20.1 pg
- MEAN CORPUSCULAR HEMOGLOBIN CONCENTRATION [5]: 32.53 G/DL
- MEAN CORPUSCULAR VOLUME [5]: 61.77 fL
- MONOCYTE [5]: 1.37%
- NEUTROPHIL [5]: 17.17%
- PLATELET COUNT [5]: 1599 x10E3/uL
- ALANINE AMINOTRANSFERASE [5]: 47 u/L
- ALKALINE PHOSPHATASE [5]: 318.5 u/L
- ASPARTATE AMINOTRANSFERASE [5]: 61.67 u/L
- BLOOD UREA NITROGEN [5]: 9.67 mg/dL
- CHLORIDE [5]: 102.33 MEQ/L
- CHOLESTEROL [5]: 74 mg/dL
- CREATINE PHOSPHOKINASE [5]: 199.67 u/L
- CREATININE [5]: 0.33 mg/dL
- GLUCOSE [5]: 167 mg/dL
- PHOSPHORUS [5]: 14.17 mg/dL
- POTASSIUM [5]: 6.63 MEQ/L
- SODIUM [5]: 146.33 MEQ/L
- TOTAL BILIRUBIN [5]: 0.33 mg/dL
- TOTAL PROTEIN [5]: 6 G/DL
- ABSOLUTE BASOPHIL [6]: 50 cells/µL
- BASOPHIL [6]: 0.5%
- EOSINOPHIL [6]: 0.34%
- ERYTHROCYTE COUNT [6]: 7.26 x10E6/uL
- HEMATOCRIT [6]: 45.84%
- HEMOGLOBIN [6]: 14.82 G/DL
- LEUKOCYTE COUNT [6]: 10.17 x10E3/uL
- LYMPHOCYTE [6]: 80.92%
- MEAN CORPUSCULAR HEMOGLOBIN [6]: 20.46 pg
- MEAN CORPUSCULAR HEMOGLOBIN CONCENTRATION [6]: 32.36 G/DL
- MEAN CORPUSCULAR VOLUME [6]: 63.26 fL
- MONOCYTE [6]: 1.18%
- NEUTROPHIL [6]: 16.4%
- PLATELET COUNT [6]: 1254 x10E3/uL
- ALANINE AMINOTRANSFERASE [6]: 48.8 u/L
- ALKALINE PHOSPHATASE [6]: 300.75 u/L
- ASPARTATE AMINOTRANSFERASE [6]: 75.6 u/L
- BLOOD UREA NITROGEN [6]: 12.2 mg/dL
- CHLORIDE [6]: 102.2 MEQ/L
- CHOLESTEROL [6]: 68.6 mg/dL
- CREATINE PHOSPHOKINASE [6]: 173.4 u/L
- CREATININE [6]: 0.36 mg/dL
- GLUCOSE [6]: 186.4 mg/dL
- PHOSPHORUS [6]: 13.36 mg/dL
- POTASSIUM [6]: 6.38 MEQ/L
- SODIUM [6]: 146.8 MEQ/L
- TOTAL BILIRUBIN [6]: 0.28 mg/dL
- TOTAL PROTEIN [6]: 5.88 G/DL

Reference: ChEMBL document CHEMBL3885881, “DrugMatrix”
